Assay [1] concerns Zymoseptoria tritici. The experiment in a line: Leaf Blotch of Wheat (SEPTTR) fungicidal activity. Conditions: wheat leaf blotch; for pest or weed control at 121.5 g/ha: Low Volume application, 121.5 g/H; for pest or weed control at 100 ppm: High Volume application. It is filed as in vivo. The method, then:
Example A: Evaluation of Fungicidal Activity: Leaf Blotch of Wheat (Zymoseptoria tritici; Bayer Code […]) Technical grades of materials were dissolved in acetone, which were then mixed with nine volumes of H2O containing 110 ppm Triton X-100. The fungicide solutions were applied onto wheat seedlings using an automated booth sprayer to run-off. All sprayed plants were allowed to air dry prior to further handling. All fungicides were evaluated using the aforementioned method for their activity vs. all target diseases, unless stated otherwise. Wheat leaf blotch and brown rust activity were also evaluated using track spray applications, in which case the fungicides were formulated as EC formulations, containing 0.1% Trycol 5941 in the spray solutions. Wheat plants (variety Yuma) were grown from seed in a greenhouse in 50% mineral soil/50% soil-less Metro mix until the first leaf was fully emerged, with 7-10 seedlings per pot. These plants were inoculated with an aqueous spore suspension of Zymoseptoria tritici either prior to or after fungicide treatments. After inoculation the plants were kept in 100% relative humidity (one day in a dark dew chamber followed by two to three days in a lighted dew chamber at 20° C.) to permit spores to germinate and infect the leaf. The plants were then transferred to a greenhouse set at 20° C. for disease to develop. When disease symptoms were fully expressed on the 1st leaves of untreated plants, infection levels were assessed on a scale of 0 to 100 percent disease severity. Percent disease control was calculated using the ratio of disease severity on treated plants relative to untreated plants.

Assay [2] relates to Puccinia triticina. The experiment in a line: Wheat Brown Rust (PUCCRT) fungicidal activity. The assay is classed as in vivo. To be noted: for pest or weed control at 121.5 g/ha: Low Volume application, 121.5 g/H. The protocol:
Technical grades of materials were dissolved in acetone, which were then mixed with nine volumes of H2O containing 110 ppm Triton X-100. The fungicide solutions were applied onto wheat seedlings using an automated booth sprayer to run-off. All sprayed plants were allowed to air dry prior to further handling. All fungicides were evaluated using the aforementioned method for their activity vs. all target diseases, unless stated otherwise. Wheat leaf blotch and brown rust activity were also evaluated using track spray applications, in which case the fungicides were formulated as EC formulations, containing 0.1% Trycol 5941 in the spray solutions. Wheat plants (variety Yuma) were grown from seed in a greenhouse in 50% mineral soil/50% soil-less Metro mix until the first leaf was fully emerged, with 7-10 seedlings per pot. These plants were inoculated with an aqueous spore suspension of Zymoseptoria tritici either prior to or after fungicide treatments. After inoculation the plants were kept in 100% relative humidity (one day in a dark dew chamber followed by two to three days in a lighted dew chamber at 20° C.) to permit spores to germinate and infect the leaf. The plants were then transferred to a greenhouse set at 20° C. for disease to develop. When disease symptoms were fully expressed on the 1st leaves of untreated plants, infection levels were assessed on a scale of 0 to 100 percent disease severity. Percent disease control was calculated using the ratio of disease severity on treated plants relative to untreated plants. Example B: Evaluation of Fungicidal Activity: Wheat Brown Rust (Puccinia triticina; Bayer Code PUCCRT) Wheat plants (variety Yuma) were grown from seed in a greenhouse in 50% mineral soil/50% soil-less Metro mix until the first leaf was fully emerged, with 7-10 seedlings per pot. These plants were inoculated with an aqueous spore suspension of Puccinia triticina either prior to or after fungicide treatments. After inoculation the plants were kept in a dark dew room at 22° C. with 100% relative humidity overnight to permit spores to germinate and infect the leaf. The plants were then transferred to a greenhouse set at 24° C. for disease to develop. Fungicide formulation, application and disease assessment followed the procedures as described in the Example A.

Where [3] appears, read: 24 h, 1 day protectant, read-out: SEPTTR disease control, 1DP (1 Day Protectant).
The mark [4] stands for this setting: 72 h, 3 day curative, read-out: SEPTTR disease control, 3DC (3 Day Curative).
The mark [5] stands for this setting: 24 h, 1 day protectant, read-out: PUCCRT disease control, 1DP (1 Day Protectant).
The mark [6] stands for this setting: 72 h, 3 day curative, read-out: PUCCRT disease control, 3DC (3 Day Curative).

Like-named read-outs stand apart in the source and are kept apart here. A value given as a limit tells only on which side of the number the result lay.

`CCCO[C@H]1CCCC[C@H](NC(=O)c2nccc(OC)c2OC(C)=O)C(=O)O[C@@H](C)[C@@H]1Oc1ccccc1` [Compound 26]: the pest or weed control at 121.5 g/ha in assay [1] (setting [3]), in assay [1] (setting [4]), in assay [2] (setting [5]) and in assay [2] (setting [6]) was above 80% each time.

For the compound `COc1ccnc(C(=O)N[C@H]2CCCC[C@H](OC)[C@@H](OC)[C@H](C)OC2=O)c1OC(C)=O` [Compound 27], the pest or weed control at 121.5 g/ha in assay [1] (setting [3]) was below 80%; in assay [2] (setting [5]) it was above 80%; in assay [2] (setting [6]), above 80%.

Regarding `COc1ccnc(C(=O)N[C@H]2CCCC[C@H](OC)[C@@H](OCC(C)C)[C@H](C)OC2=O)c1OC(C)=O` [Compound 28], the pest or weed control at 121.5 g/ha in assay [1] (setting [3]) is below 80%; in assay [1] (setting [4]), above 80%; in assay [2] (setting [5]) it was above 80%; in assay [2] (setting [6]) it was above 80%.

Take `COc1ccnc(C(=O)N[C@H]2CCCC[C@@H]3OC(C)(C)O[C@H]3[C@H](C)OC2=O)c1OC(C)=O` [Compound 29]: the pest or weed control at 121.5 g/ha in assay [1] (setting [3]) was below 80%; in assay [1] (setting [4]), above 80%; in assay [2] (setting [5]), above 80%; in assay [2] (setting [6]), above 80%.

As for `CCC[C@H]1CCCC[C@H](NC(=O)c2nccc(OC)c2OCOC(C)=O)C(=O)O[C@@H](C)[C@@H]1OC(=O)C(C)C` [Compound 31], the pest or weed control at 121.5 g/ha in assay [1] (setting [3]) is below 80%; in assay [1] (setting [4]) it was below 80%; in assay [2] (setting [5]), above 80%; in assay [2] (setting [6]), below 80%.

As to `COc1ccc(CO[C@H]2[C@H](C)OC(=O)[C@@H](NC(=O)c3nccc(OC)c3OCOC(C)=O)CCOC[C@@H]2OCc2ccc(OC)cc2)cc1` [Compound 32], the pest or weed control at 121.5 g/ha in assay [1] (setting [4]) and in assay [2] (setting [6]) was below 80% each time.

Take `COc1ccnc(C(=O)N[C@H]2CCCC[C@@H]3OC(C)(C)O[C@H]3[C@H](C)OC2=O)c1OCOC(C)=O` [Compound 33]: the pest or weed control at 121.5 g/ha was below 80% in assay [1] (setting [3]), above 80% in assay [1] (setting [4]), above 80% in assay [2] (setting [5]) and above 80% in assay [2] (setting [6]).

Regarding `COc1ccnc(C(=O)N[C@H]2CCCC[C@H](OC)[C@@H](OC3CCCC3)[C@H](C)OC2=O)c1OCOC(C)=O` [Compound 34], the pest or weed control at 121.5 g/ha is below 80% in assay [1] (setting [3]), above 80% in assay [1] (setting [4]), above 80% in assay [2] (setting [5]) and above 80% in assay [2] (setting [6]).

As to `COc1ccnc(C(=O)N[C@H]2CCCC[C@H](Oc3ccccc3)[C@@H](OC3CCCC3)[C@H](C)OC2=O)c1OCOC(C)=O` [Compound 36], the pest or weed control at 121.5 g/ha in assay [1] (setting [3]) was below 80%; in assay [1] (setting [4]), below 80%; in assay [2] (setting [5]), above 80%; in assay [2] (setting [6]) it was above 80%.

Take `CCCOC(=O)O[C@H]1CCCC[C@H](NC(=O)c2nccc(OC)c2OCOC(C)=O)C(=O)O[C@@H](C)[C@@H]1OCC(C)C` [Compound 38]: the pest or weed control at 121.5 g/ha in assay [1] (setting [3]) is above 80%; in assay [1] (setting [4]), above 80%; in assay [2] (setting [5]), above 80%; in assay [2] (setting [6]), below 80%.

Turning to `COc1ccnc(C(=O)N[C@H]2CCOC[C@H](OC)[C@@H](Oc3ccccc3)[C@H](C)OC2=O)c1OCOC(C)=O` [Compound 40], the pest or weed control at 121.5 g/ha in assay [1] (setting [3]), in assay [1] (setting [4]), in assay [2] (setting [5]) and in assay [2] (setting [6]) was above 80% each time.

Consider `CCCO[C@H]1COCC[C@H](NC(=O)c2nccc(OC)c2OCOC(C)=O)C(=O)O[C@@H](C)[C@@H]1Oc1ccccc1` [Compound 41], for which the pest or weed control at 121.5 g/ha in assay [1] (setting [3]), in assay [1] (setting [4]), in assay [2] (setting [5]) and in assay [2] (setting [6]) was above 80% in each case.

Consider `CCCO[C@H]1[C@H](C)OC(=O)[C@@H](NC(=O)c2nccc(OC)c2OCOC(C)=O)CCOC[C@@H]1Oc1ccccc1` [Compound 42], for which the pest or weed control at 121.5 g/ha in assay [1] (setting [3]) is below 80%; in assay [1] (setting [4]), below 80%; in assay [2] (setting [5]) it was above 80%; in assay [2] (setting [6]) it was below 80%.

For the compound `COc1ccnc(C(=O)N[C@H]2CCOC[C@H](OC(=O)C(C)C)[C@@H](Oc3ccccc3)[C@H](C)OC2=O)c1OCOC(C)=O` [Compound 44], the pest or weed control at 121.5 g/ha in assay [1] (setting [3]) was below 80%; in assay [1] (setting [4]), below 80%; in assay [2] (setting [5]), above 80%; in assay [2] (setting [6]), above 80%.

On to `COc1ccnc(C(=O)N[C@H]2CCOC[C@H](OCC(C)C)[C@@H](Oc3ccccc3)[C@H](C)OC2=O)c1OCOC(C)=O` [Compound 45], for which the pest or weed control at 121.5 g/ha in assay [1] (setting [3]), in assay [1] (setting [4]), in assay [2] (setting [5]) and in assay [2] (setting [6]) was above 80% in each case.

Turning to `COc1ccnc(C(=O)N[C@H]2CCOC[C@H](Oc3ccccc3)[C@@H](OCC(C)C)[C@H](C)OC2=O)c1OCOC(C)=O` [Compound 46], the pest or weed control at 121.5 g/ha in assay [1] (setting [3]) was above 80%; in assay [1] (setting [4]) it was below 80%; in assay [2] (setting [5]), above 80%; in assay [2] (setting [6]), below 80%.

Consider `COc1ccnc(C(=O)N[C@H]2CCOC[C@H](Oc3ccccc3)[C@@H](Oc3ccccc3)[C@H](C)OC2=O)c1OC(C)=O` [Compound 47], for which the pest or weed control at 121.5 g/ha in assay [1] (setting [3]), in assay [1] (setting [4]), in assay [2] (setting [5]) and in assay [2] (setting [6]) was above 80% throughout.

`COc1ccnc(C(=O)N[C@H]2CCOC[C@H](OC)[C@@H](Oc3ccccc3)[C@H](C)OC2=O)c1OC(C)=O` [Compound 48]: the pest or weed control at 121.5 g/ha in assay [1] (setting [3]), in assay [1] (setting [4]), in assay [2] (setting [5]) and in assay [2] (setting [6]) was above 80% each time.

On to `CC(=O)OCOc1cccnc1C(=O)N[C@H]1CCCC[C@H](CC2CCCC2)[C@@H](Oc2ccccc2)[C@H](C)OC1=O` [Compound 49], for which the pest or weed control at 100 ppm in assay [1] (setting [3]) was below 80%; in assay [1] (setting [4]), below 80%; in assay [2] (24 h, High Volume application, 100 ppm, 1 day protectant, read-out: PUCCRT disease control, 1DP (1 Day Protectant)), above 80%. Also, the pest or weed control at 121.5 g/ha in assay [1] (setting [3]) was below 80%; in assay [2] (setting [5]) it was above 80%; in assay [2] (setting [6]), below 80%.

`COc1ccnc(C(=O)N[C@H]2CCCC[C@H](CC3CCCC3)[C@@H](Oc3ccccc3)[C@H](C)OC2=O)c1OCOC(C)=O` [Compound 50]: the pest or weed control at 121.5 g/ha in assay [1] (setting [3]) is above 80%; in assay [1] (setting [4]), below 80%; in assay [2] (setting [5]), above 80%; in assay [2] (setting [6]), above 80%.

As to `CCOCC(=O)OCOc1c(OC)ccnc1C(=O)N[C@H]1CCCC[C@H](CC2CCCC2)[C@@H](Oc2ccccc2)[C@H](C)OC1=O` [Compound 51, ((2-(((3S,8R,9R,10S)-8-(cyclopentylmethyl)-10-methyl-2-oxo-9-phenoxyoxecan-3-yl)carbamoyl)-4-methoxypyridin-3-yl)oxy)methyl 2-ethoxyacetate], the pest or weed control at 121.5 g/ha is above 80% in assay [1] (setting [3]), above 80% in assay [2] (setting [5]) and below 80% in assay [2] (setting [6]).
